System: S100A11 mRNA in human articular chondrocytes
Assay: S100A11 mRNA expression by RT-PCR
Format: cell-based
Conditions: 10 ng/ml, 24 hours, relative to L30
Experimental: Normal human knee articular chondrocytes were treated in culture with IL-1 or IGF-I (10 ng/ml) for 24 hours and ascertained for S100A11 mRNA expression by RT-PCR, relative to the loading control L30, a ribosomal housekeeping gene. Results for induction of S100 A11 representative of 3 separate experiments with different donors.

IL-1β: Human recombinant IL-1β purchased from R&D Systems
S100A11 mRNA expression: induce mRNA expression of S100A11

From patent US20040109845A1, “Method for inhibiting articular cartilage matrix calcification” (priority 2001, published 2004)
